In ChEMBL document CHEMBL1909046, “DrugMatrix in vitro pharmacology data” one finds IC50 and Ki data, which are given here for five compounds.

For one series, the target named is T1, Calcitonin receptor (Homo sapiens, UniProt P30988). Further: in other assays of this panel Not Active means under 50% inhibition at 10 µM.
T1 sequence (P30988 whole entry): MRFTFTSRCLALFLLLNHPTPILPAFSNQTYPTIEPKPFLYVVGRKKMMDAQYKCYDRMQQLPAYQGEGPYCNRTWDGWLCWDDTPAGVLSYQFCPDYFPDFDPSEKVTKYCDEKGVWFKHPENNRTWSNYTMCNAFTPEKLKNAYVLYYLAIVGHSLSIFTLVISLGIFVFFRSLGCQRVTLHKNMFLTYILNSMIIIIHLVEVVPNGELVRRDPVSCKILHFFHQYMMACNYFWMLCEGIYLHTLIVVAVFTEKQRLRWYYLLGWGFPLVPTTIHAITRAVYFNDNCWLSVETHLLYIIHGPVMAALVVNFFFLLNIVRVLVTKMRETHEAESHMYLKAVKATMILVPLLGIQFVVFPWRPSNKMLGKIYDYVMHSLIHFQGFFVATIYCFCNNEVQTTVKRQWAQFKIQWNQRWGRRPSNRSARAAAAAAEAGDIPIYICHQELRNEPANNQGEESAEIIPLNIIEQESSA
In kind it is cell membranes, Membrane. The settings on record: t47d.

Series [1] has as its target C-C chemokine receptor type 2 (Homo sapiens, UniProt P41597). It counts as cell membranes, Membrane. The settings on record: cho-k1. Further: in other assays of this panel Not Active means under 50% inhibition at 10 µM.
In series [2] the target is T2, C-X-C chemokine receptor type 2 (Homo sapiens, UniProt P25025). Further: in other assays of this panel Not Active means under 50% inhibition at 10 µM.
T2 sequence (P25025 whole entry): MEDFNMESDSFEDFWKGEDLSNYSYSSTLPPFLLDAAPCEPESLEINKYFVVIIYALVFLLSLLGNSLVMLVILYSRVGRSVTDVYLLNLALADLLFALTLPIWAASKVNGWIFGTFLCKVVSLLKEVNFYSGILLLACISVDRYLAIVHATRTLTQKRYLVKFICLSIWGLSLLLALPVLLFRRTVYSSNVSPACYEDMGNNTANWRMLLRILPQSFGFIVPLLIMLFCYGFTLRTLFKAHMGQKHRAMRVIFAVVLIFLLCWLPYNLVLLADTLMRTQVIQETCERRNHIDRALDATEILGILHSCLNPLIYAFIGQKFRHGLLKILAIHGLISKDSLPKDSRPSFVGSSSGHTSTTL
It counts as cell membranes, Membrane. The settings on record: cho-k1.

Series [3] is described as follows: DRUGMATRIX: Glutamate, NMDA, Agonism radioligand binding (ligand: [3H] CGP-39653). In kind it is cell membranes, Rattus norvegicus, Wistar, Cerebral cortex, Membrane. The following applies: Not Active = under 50% inhibition at 10 µM.
Series [4] is described as follows: DRUGMATRIX: Interleukin IL-1 radioligand binding (ligand: [125I] interleukin 1beta). The settings on record: nih3t3; Not Active = under 50% inhibition at 10 µM. In kind it is cell membranes, Membrane.
The target of the next series is Melanocortin receptor 5 (Homo sapiens, UniProt P33032). It counts as cell membranes, HEK293, Membrane. Further: in other assays of this panel Not Active means under 50% inhibition at 10 µM.
The target in series [5] is T3, Nitric oxide synthase, inducible (Mus musculus, UniProt P29477).
T3 sequence (P29477 whole entry): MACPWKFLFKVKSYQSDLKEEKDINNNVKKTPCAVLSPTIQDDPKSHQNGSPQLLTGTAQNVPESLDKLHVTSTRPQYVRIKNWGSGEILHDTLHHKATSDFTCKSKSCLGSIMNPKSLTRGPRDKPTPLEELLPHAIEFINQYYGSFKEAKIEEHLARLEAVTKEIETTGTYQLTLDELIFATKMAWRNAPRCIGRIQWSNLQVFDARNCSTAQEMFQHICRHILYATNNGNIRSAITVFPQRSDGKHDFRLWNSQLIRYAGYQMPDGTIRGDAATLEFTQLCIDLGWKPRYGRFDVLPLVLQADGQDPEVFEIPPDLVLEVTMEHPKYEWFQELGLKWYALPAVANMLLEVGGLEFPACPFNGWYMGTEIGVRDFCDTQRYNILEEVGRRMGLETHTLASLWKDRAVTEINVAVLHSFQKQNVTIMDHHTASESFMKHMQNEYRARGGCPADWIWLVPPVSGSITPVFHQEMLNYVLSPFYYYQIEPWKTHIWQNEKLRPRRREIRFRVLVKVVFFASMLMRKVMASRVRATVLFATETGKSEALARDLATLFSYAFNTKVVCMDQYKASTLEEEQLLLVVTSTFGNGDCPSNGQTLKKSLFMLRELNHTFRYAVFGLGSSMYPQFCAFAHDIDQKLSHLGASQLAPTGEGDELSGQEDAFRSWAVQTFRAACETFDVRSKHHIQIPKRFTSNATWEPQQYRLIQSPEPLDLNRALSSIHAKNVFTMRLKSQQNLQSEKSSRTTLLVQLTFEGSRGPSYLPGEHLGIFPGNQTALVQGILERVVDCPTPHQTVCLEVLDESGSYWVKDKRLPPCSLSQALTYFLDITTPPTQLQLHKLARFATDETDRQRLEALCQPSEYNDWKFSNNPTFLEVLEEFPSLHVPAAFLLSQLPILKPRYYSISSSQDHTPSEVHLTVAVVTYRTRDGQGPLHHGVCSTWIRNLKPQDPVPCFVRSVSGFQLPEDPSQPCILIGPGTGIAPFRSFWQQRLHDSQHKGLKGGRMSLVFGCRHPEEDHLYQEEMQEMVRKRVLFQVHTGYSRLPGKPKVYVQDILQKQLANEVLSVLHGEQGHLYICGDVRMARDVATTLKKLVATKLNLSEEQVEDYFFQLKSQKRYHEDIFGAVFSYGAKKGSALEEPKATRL
More on the design: species or system Escherichia coli.

Series [6] has as its target Voltage-gated inwardly rectifying potassium channel KCNH2 (Homo sapiens, UniProt Q12809). The following applies: hek293. Further: in other assays of this panel Not Active means under 50% inhibition at 10 µM.

Sequence of Voltage-gated inwardly rectifying potassium channel KCNH2 (Q12809 whole entry): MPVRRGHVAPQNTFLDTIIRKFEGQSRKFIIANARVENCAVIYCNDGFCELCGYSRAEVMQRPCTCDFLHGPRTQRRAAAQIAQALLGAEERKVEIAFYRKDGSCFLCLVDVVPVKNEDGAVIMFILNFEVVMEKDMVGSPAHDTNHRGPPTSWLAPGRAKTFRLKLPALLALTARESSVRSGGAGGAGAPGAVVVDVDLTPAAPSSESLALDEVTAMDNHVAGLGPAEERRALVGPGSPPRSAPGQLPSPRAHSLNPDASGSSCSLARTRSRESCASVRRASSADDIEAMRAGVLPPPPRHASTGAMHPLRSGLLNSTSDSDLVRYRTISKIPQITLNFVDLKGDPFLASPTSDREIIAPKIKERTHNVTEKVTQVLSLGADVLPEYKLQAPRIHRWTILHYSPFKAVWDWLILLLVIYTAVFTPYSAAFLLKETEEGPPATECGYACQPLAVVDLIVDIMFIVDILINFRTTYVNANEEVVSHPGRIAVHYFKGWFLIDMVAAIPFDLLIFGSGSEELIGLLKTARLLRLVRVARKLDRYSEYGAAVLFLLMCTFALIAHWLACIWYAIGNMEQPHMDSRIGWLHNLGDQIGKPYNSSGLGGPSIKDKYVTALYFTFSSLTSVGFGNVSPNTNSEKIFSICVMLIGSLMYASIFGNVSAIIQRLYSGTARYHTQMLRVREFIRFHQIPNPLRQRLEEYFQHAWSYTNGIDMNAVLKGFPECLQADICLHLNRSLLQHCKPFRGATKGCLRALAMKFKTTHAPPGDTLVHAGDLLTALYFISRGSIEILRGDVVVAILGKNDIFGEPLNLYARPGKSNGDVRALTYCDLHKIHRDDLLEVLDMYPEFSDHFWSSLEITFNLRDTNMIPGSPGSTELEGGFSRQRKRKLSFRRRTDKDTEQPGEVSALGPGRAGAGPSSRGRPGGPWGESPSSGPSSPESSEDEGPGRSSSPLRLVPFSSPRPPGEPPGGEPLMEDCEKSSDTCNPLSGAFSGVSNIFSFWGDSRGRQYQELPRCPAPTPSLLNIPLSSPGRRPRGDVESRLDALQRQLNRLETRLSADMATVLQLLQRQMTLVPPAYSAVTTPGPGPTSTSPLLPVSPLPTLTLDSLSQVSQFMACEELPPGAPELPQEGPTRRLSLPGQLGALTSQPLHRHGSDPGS
Sequence of C-C chemokine receptor type 2 (P41597 whole entry): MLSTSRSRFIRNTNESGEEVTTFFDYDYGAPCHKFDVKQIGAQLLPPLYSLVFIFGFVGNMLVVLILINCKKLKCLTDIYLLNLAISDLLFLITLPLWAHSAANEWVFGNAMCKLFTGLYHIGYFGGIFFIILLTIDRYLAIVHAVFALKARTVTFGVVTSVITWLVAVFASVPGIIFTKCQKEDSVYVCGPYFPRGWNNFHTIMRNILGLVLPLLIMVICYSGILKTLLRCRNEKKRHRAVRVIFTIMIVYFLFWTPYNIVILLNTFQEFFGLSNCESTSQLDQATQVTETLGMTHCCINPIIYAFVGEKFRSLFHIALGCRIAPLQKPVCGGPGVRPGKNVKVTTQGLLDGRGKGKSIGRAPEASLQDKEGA
Sequence of Melanocortin receptor 5 (P33032 whole entry): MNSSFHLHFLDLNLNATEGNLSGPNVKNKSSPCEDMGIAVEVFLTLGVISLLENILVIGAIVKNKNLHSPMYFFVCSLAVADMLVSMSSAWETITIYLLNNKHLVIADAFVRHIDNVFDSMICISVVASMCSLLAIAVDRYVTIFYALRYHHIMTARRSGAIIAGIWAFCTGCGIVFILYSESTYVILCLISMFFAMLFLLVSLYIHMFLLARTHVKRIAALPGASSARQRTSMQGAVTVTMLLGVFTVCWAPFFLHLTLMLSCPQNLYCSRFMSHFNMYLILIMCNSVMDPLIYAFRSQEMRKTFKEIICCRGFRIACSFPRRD

Take `COC(=O)Nc1nc2ccc(C(=O)c3cccs3)cc2[nH]1` [NOCODAZOLE]: the IC50 entry (at Calcitonin receptor; in series [1]; in series [2]; in series [3]; in series [4]; at Melanocortin receptor 5 (hek293)) was “Not Active” in each case. Moreover, the IC50 result in series [5] and in series [6] was “Not Active” each time. Also, the Ki entry in series [3], in series [4] and in series [6] was “Not Active” throughout.
AURANOFIN: the IC50 entry (at Calcitonin receptor; in series [1]; in series [2]; in series [3]; in series [4]; at Melanocortin receptor 5 (hek293)) was “Not Active” each time. Also, the IC50 result in series [5] and in series [6] was “Not Active” each time. For the same compound, the Ki entry (on Calcitonin receptor; in series [1]; in series [2]; in series [3]; in series [4]; at Melanocortin receptor 5 (hek293)) was “Not Active” throughout. In addition, the Ki result in series [5] and in series [6] was “Not Active” in each case.
With `Cc1nnc2n1-c1ccc(Cl)cc1C(c1ccccc1)=NC2` [ALPRAZOLAM], the IC50 result (at Calcitonin receptor; in series [1]; in series [2]; in series [3]; in series [4]; against Melanocortin receptor 5 (hek293)) was “Not Active” throughout. Further, the IC50 result in series [5] and in series [6] was “Not Active” each time. For the same compound, the Ki result in series [3], in series [4] and in series [6] was “Not Active” each time.
Regarding `CC(=O)[C@H]1[C@H](C#N)C[C@H]2[C@@H]3CC=C4C[C@@H](O)CC[C@]4(C)[C@H]3CC[C@@]21C` [PREGNENOLONE CARBONITRILE], the IC50 result (on Calcitonin receptor; in series [1]; in series [2]; in series [3]; in series [4]; at Melanocortin receptor 5 (hek293)) was “Not Active” each time. In addition, the IC50 entry in series [5] and in series [6] was “Not Active” throughout. In addition, the Ki entry in series [3], in series [4] and in series [6] was “Not Active” throughout.
As to `C[C@@H]1CC[C@@]2(OC1)O[C@H]1[C@@H](O)[C@H]3[C@@H]4CC[C@H]5C[C@@H](O[C@@H]6O[C@H](CO)[C@H](O[C@@H]7O[C@H](CO)C(O)[C@H](O[C@@H]8OC[C@@H](O)[C@H](O)[C@H]8O)[C@H]7O[C@@H]7O[C@H](CO)[C@H](O)[C@H](O[C@@H]8O[C@H](CO)[C@@H](O)[C@H](O)[C@H]8O)[C@H]7O)[C@H](O)[C@H]6O)[C@H](O)C[C@]5(C)[C@H]4CC[C@]3(C)[C@H]1[C@@H]2C` (stereo partly specified) [DIGITONIN], the IC50 result on Calcitonin receptor is “Not Active”; in series [1], “Not Active”; in series [2], “Not Active”; in series [3] it was “Not Active”; in series [4], “Not Active”; on Melanocortin receptor 5 (read-out: IC50) it was 3.88 µM. The IC50 entry in series [5] and in series [6] was “Not Active” in each case. Further, the Ki entry was “Not Active” in series [3], “Not Active” in series [4], 3.64 µM on Melanocortin receptor 5 (read-out: Ki) and “Not Active” in series [6].

The term IC50 denotes the concentration that gives 50% inhibition. A word on the Ki: it is the equilibrium dissociation constant of an inhibitor or competing ligand from its target.
